Data as given in patent US20250346634A1, “CYCLIC PEPTIDES FOR TARGETING EPIDERMAL GROWTH FACTOR RECEPTOR AND MUTATIONS THEREOF FOR DRUG DELIVERY” (priority 2022, published 2025).
Bridge positions count the residues as written; N and C are the ends. Peptide text beside a SMILES is read from it. * marks the point of attachment. FITC = O=C1OC2(c3ccc(O)cc3Oc3cc(O)ccc32)c2ccc(NC(=S)*)cc21; GABA = NCCCC(=O)O

Legend:
[1] = tested on: EGFR+ve cells (H1299, DKMG) versus K562 cells; test: Flow cytometry internalization of peptide-FITC conjugates; assay type: cell-based; conditions: 2.5 μM FITC-labeled peptide
From the text: Analysis was done with FACS cell analyzer.

[2] = tested on: high-EGFR-expressing MDA-435 cells; test: Target specificity by flow cytometry, MDA-435; assay type: cell-based; conditions: FITC-labeled peptides
Description: (§1) Cells with 80-90% confluence were incubated with 2.5 μM FITC-conjugated peptides in RPMI-5% FBS for 1 h at 37° C. Cells were scrapped from the culture flask and washed twice with 2 ml FCSB. Cells were analyzed as previously described Internalization of peptide-FITC conjugates.
(§2) Cells were cultured overnight in 6-well plates under 80-90% confluence, the medium was replaced with 1 ml of the fresh medium with 5% FBS that contained 2.5 μM FITC-conjugated peptides. The plates were incubated for 1, 2, or 3 h at 37° C. After incubation, the cells were collected with trypsin, washed twice with FCSB, and resuspended in 200 μl of FCSB. Analysis was done with FACS cell analyzer.
(§3) Targeting specificity of FITC-labeled P4-P6, P8, and P9 peptides was investigated on three cell lines, which were not used in biopanning: kidney HEK-293 and breast MCF-10A normal cells, and breast cancer MDA-435 cells. To verify EGFR WT expression on these cell lines, the inventors stained the cells with APC-labeled monoclonal anti-human EGFR antibody followed by a flow cytometry analysis.
(§4) The interaction of the FITC labeled P4 P6, P8, and P9 with these cell lines was analyzed by flow cytometry.

H1299 cells = test: Confocal microscopy, H1299; assay type: cell-based; conditions: 25 μM
Description: (§5) H1299, DKMG and HEK-293 cells were seeded in 12-well glass bottom black plates in concentrations of 5.0×10^4, 1.0×10^5, and 2.5×10^4 cells/well, respectively. The cells were cultured in complete growth medium at 37° C. under 5% CO2 for 24 h. After incubation, the medium was removed, the cells were twice washed with PBS Ca^2+Mg^2+, and new fresh medium (0.5 ml) contained 25 μM of FITC labeled P6 or P9 peptides was added. The stained cells were incubated at 37° C. under 5% CO2 for 0 h and 3 h, washed twice with PBS, and stained with Hoechst 33258 ([…], 0.5 ml, 37° C., 5% CO2) for 10 min. The cells were twice washed with PBS and fixed with 4% paraformaldehyde (PFA). Fluorescence images were then recorded at the magnification of ×200 with a Zeiss LSM700 confocal laser microscope.
(§6) To get additional confirmation data on the specificity of the FITC labeled P6 and P9 peptides towards EGFR H1299 lung cancer and […] DKMG glioblastoma cell lines compared to EGFR−ve HEK-293 normal cells, the inventors employed confocal scanning microscopy. The cells were incubated with 25 μM FITC-labeled P6 and P9, the cell nuclear were stained with […], the cells were fixed with 4% paraformaldehyde, and captured immediately after addition and 3 h later. […] A clear correlation of the green FITC signal with the cell type was established.

DKMG cells = test: Confocal microscopy, DKMG; assay type: cell-based; conditions: 25 μM; for green FITC signal: after 3 hours; for fluorescence intensity: time zero
Description: as §5, §6

HEK-293 cells = test: Confocal microscopy, HEK-293; assay type: cell-based; conditions: 25 μM, after 3 hours
Description: as §5, §6

[3] = tested on: H1299, DKMG and K562 cells; test: Flow cytometry binding of peptide-FITC conjugates; assay type: cell-based; conditions: 2.5 μM FITC-labeled peptide
From the text: This concentration was chosen based on preliminary dose dependence study.

MCF-10A cells = conditions: FITC-labeled peptides, flow cytometry
Description: as §1, §2, §3, §4

[4] = tested on: DKMG cells line expressing both EGFR+ve and EGFRvIII mutation; conditions: 2.5 μM FITC-labeled peptide
Description: as §2

Structure (SMILES) | internalization (flow cytometry) [1] | internalization into MDA-435 cells [2] | green FITC signal (H1299 cells; after 3 hours) | fluorescence intensity (H1299 cells; time zero) | green FITC signal (DKMG cells) | fluorescence intensity (DKMG cells) | green FITC signal (HEK-293 cells) | binding (flow cytometry) [3] | binding to MDA-435 cells [2] | binding to MCF-10A cells (MCF-10A cells) | internalization activity to DKMG [4]
CC[C@H](C)[C@@H]1NC(=O)[C@H](Cc2ccc(O)cc2)NC(=O)[C@H](CO)NC(=O)CNC(=O)[C@@H]2CCCN2C(=O)[C@H](C(C)C)NC(=O)[C@H](Cc2cnc[nH]2)NC(=O)[C@@H](NC(=O)CCCNC(=S)Nc2ccc3c(c2)C(=O)OC32c3ccc(O)cc3Oc3cc(O)ccc32)CSSC[C@@H](C(N)=O)NC1=O [FITC-labeled P6] ({FITC-GABA}-CHVPGSYIC-NH2; disulfide 1-9) | internalized only into to EGFR+ve cells | pronounced internalization | strong signal | not detectable | strong signal | not detectable | low-intensive signal | – | – | – | –
CC(C)C[C@@H]1NC(=O)[C@H](C)NC(=O)[C@H](CO)NC(=O)[C@@H](NC(=O)CCCNC(=S)Nc2ccc3c(c2)C(=O)OC32c3ccc(O)cc3Oc3cc(O)ccc32)CSSC[C@@H](C(N)=O)NC(=O)[C@H](Cc2cnc[nH]2)NC(=O)[C@H](CO)NC(=O)[C@H](C)NC(=O)[C@H](Cc2c[nH]c3ccccc23)NC1=O [FITC-labeled P8] ({FITC-GABA}-CSALWASHC-NH2; disulfide 1-9) | internalized only into to EGFR+ve cells | – | – | – | – | – | – | bind to H1299 and DKMG selectively but not to K562 cells | noticeable binding | noticeable binding | –
CSCC[C@@H]1NC(=O)[C@H](C)NC(=O)[C@H](CC(N)=O)NC(=O)[C@H](C(C)C)NC(=O)[C@@H](NC(=O)CCCNC(=S)Nc2ccc3c(c2)C(=O)OC32c3ccc(O)cc3Oc3cc(O)ccc32)CSSC[C@@H](C(N)=O)NC(=O)[C@H](Cc2ccc(O)cc2)NC(=O)[C@H](CO)NC(=O)[C@H](CCC(N)=O)NC1=O [FITC-labeled P9] ({FITC-GABA}-CVNAMQSYC-NH2; disulfide 1-9) | internalized only into to EGFR+ve cells | pronounced internalization | – | – | significantly increased after 3 hours | pronounced emission | – | bind to H1299 and DKMG selectively but not to K562 cells | – | – | higher internalization activity
